We go through 6 compounds from patent US5081131A, “Omega-((hetero)alkyl)benz(cd)-indol-2-amines” (American Cyanamid Company, priority 1988, dated 1992).

The target of test [1] is T1, thromboxane synthetase enzyme (Rattus norvegicus, UniProt P49430).
T1 construct: endogenous in cells; host or cells: washed platelets from arterial blood of male Okamoto-Aoki spontaneously hypertensive rats (animals from Taconic Farms, Germantown, N.Y.)
T1 sequence (P49430 1-533): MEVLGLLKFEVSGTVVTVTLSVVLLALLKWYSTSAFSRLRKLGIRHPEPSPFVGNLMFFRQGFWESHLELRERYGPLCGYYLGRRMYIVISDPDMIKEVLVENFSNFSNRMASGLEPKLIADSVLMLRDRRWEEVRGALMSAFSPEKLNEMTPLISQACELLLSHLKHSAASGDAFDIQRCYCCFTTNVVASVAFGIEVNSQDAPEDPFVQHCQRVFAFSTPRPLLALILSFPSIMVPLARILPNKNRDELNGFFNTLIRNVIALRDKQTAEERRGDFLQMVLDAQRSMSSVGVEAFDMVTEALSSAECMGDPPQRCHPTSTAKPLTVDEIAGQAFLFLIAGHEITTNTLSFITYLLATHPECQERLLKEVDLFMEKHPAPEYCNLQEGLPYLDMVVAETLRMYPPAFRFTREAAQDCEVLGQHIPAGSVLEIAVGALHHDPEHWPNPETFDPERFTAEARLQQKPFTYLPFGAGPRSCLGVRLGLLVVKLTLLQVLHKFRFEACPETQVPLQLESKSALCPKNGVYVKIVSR
As to the kind of experiment: Thromboxane synthetase enzyme inhibition (TXB2 formation in washed platelets, RIA). It counts as cell-based, spontaneously hypertensive rat. As to conditions: 1×10^-4 Molar, SHR platelets, 10 min at 37° C.; for inhibition at 100 µM: read-out: % Inhibition (Thromboxane Synthetase Enzyme Inhibition).

Test [2] deals with spontaneously hypertensive rats. Put plainly: Hypotensive activity in spontaneously hypertensive rats (MABP). It is filed as in vivo, rat (Okamoto strain). As to conditions: SHR, gavage, two doses of 10 mg/kg or less 24 h apart, MABP at 28 h; average baseline 160±1.5 mm Hg. The method, boiled down: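 Male 16-week Okamoto spontaneously hypertensive rats dosed by gavage in 2% starch at 10 mg/kg or less with 0.9% NaCl loading 25 ml/kg; identical dose without saline given 24 hours later. Mean arterial blood pressure measured 28 hours after first dose; 1 to 4 rats per compound.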

Test [3] deals with thevetin-induced arrhythmia in guinea pigs. Put plainly: Thevetin (cardiac glycoside)-induced arrhythmia in guinea pigs. It is filed as in vivo, guinea pig. The note with it: saline 22.91±0.5 minutes. The method, then:
Male guinea pigs, weighing 300-500 g each, from Summit View Farms, Belvidere, N.J., were anesthetized by intraperitoneal adminstration of urethan at 1500 mg/kg. The animals were then restrained in a supine position. Electrocardiogram leads were attached to the four limbs and Lead II of the electrocardiogram was monitored.
The neck region was exposed and the jugular vein was cannulated. The test compounds were dissolved in saline and administered intravenously at the indicated doses, via a cannula which was then flushed with saline. Five minutes after the test compound was administered, thevetin dissolved in saline was administered by infusion through a cannula at a dose of 0.1 mg/kg/minute in a volume of 0.1 ml. The time until the P wave of the electrocardiogram disappeared was determined.

Structures are written as SMILES.

Regarding `Clc1ccc2c3c(cccc13)C(NCCCCn1ccnc1)=N2.O=C(O)/C=C/C(=O)O` [6-Chloro-N-(4-(1H-imidazol-1-yl)butyl)benz(cd)indol-2-amine, fumarate], the inhibition at 100 µM in test [1] was 100%. Further, the “Avg. MABP in mm Hg (No. of Rats)” value in test [2] was found to be 115 mm Hg. Further, the “Time (Minutes) Before Induced Arrhythmia” value in test [3] (IV dose 10 mg/kg) was 31.5 min.
With `c1cncc(CCNC2=Nc3cccc4cccc2c34)c1` [N-(2-(3-Pyridinyl)ethyl)benz(cd)indol-2-amine sesqui-fumarate], the inhibition at 100 µM in test [1] was 99%. In addition, the “Avg. MABP in mm Hg (No. of Rats)” value in test [2] was 126 mm Hg. Further, the “Time (Minutes) Before Induced Arrhythmia” value in test [3] (IV dose 20 mg/kg) is 37 min.
On to `c1ccc(C(CNC2=Nc3cccc4cccc2c34)(Cn2ccnc2)c2ccccc2)cc1` [N-(3-(1H-imidazol-1-yl)-2,2-diphenylpropyl)benz(cd)indol-2-amine], for which the inhibition at 100 µM in test [1] was 75%. In test [2], the “Avg. MABP in mm Hg (No. of Rats)” value came to 127 mm Hg. Also, the “Time (Minutes) Before Induced Arrhythmia” value in test [3] (IV dose 10 mg/kg) came out at 41 min.
`Cl.Cl.c1cc2c3c(cccc3c1)C(NCCCn1ccnc1)=N2` [N-(3-(1H-imidazol-1-yl)propyl)benz(cd)indol-2-amine, dihydrochloride]: the “% Inhibition (Thromboxane Synthetase Enzyme Inhibition)” value in test [1] came to 85%. Moreover, in test [2], the “Avg. MABP in mm Hg (No. of Rats)” value was 87 mm Hg. In addition, the “Time (Minutes) Before Induced Arrhythmia” value in test [3] (IV dose 10 mg/kg) turned out to be 48.5 min.
Consider `O=C(O)/C=C/C(=O)O.c1cc2c3c(cccc3c1)C(NCCCCn1ccnc1)=N2` [N-(4-(1H-imidazol-1-yl)butyl)benz(cd)indol-2-amine, fumarate], for which the “% Inhibition (Thromboxane Synthetase Enzyme Inhibition)” value in test [1] turned out to be 100%. Besides, in test [2], the “Avg. MABP in mm Hg (No. of Rats)” value was 106 mm Hg. Besides, in test [3] (IV dose 10 mg/kg), the “Time (Minutes) Before Induced Arrhythmia” value amounted to 31 min.
For `O=C(O)/C=C/C(=O)O.c1cc2c3c(cccc3c1)C(NCCCCCCCCCCn1ccnc1)=N2` [N-(10-(1H-imidazol-1-yl)decyl)benz(cd)indol-2-amine, fumarate], the inhibition at 100 µM in test [1] amounted to 65%. Further, the “Avg. MABP in mm Hg (No. of Rats)” value in test [2] is 124 mm Hg. Moreover, in test [3] (IV dose 10 mg/kg), the “Time (Minutes) Before Induced Arrhythmia” value is 34.2 min.

In general, inhibition refers to how much of the control response was suppressed.
